Measurements as given in patent US12036237B2, “Bromide source for use in treating autism spectral disorder” (INSERM (INSTITUT NATIONAL DE LA SANTE ET DE LA RECHERCHE …, priority 2016, dated 2024).
“Also recorded” adds a separate entry of the source.

Tests used:
Oprm1−/− mice [1] = test: Motor stereotypies scoring
Oprm1−/− mice [2] = test: Direct social interaction test
Oprm1−/− mice [3] = test: Novelty-suppressed feeding test; conditions: for latency to feed: Oprm1 wild-type and null mice, bromide 250, 500 mg/kg
[4] = Example 2, bromide 250, 500 mg/kg
[5] = Oprm1−/− mice, bromide 125, 250, 500 mg/kg i.p. daily
[6] = all animals, bromide 125, 250, 500 mg/kg i.p. daily
[7] = Example 2, Oprm1−/− mice, bromide 250, 500 mg/kg i.p. daily
[8] = Example 2, male and female Oprm1−/− mice, bromide 250, 500 mg/kg
[9] = Oprm1−/− mice, bromide 125, 250, 500 mg/kg i.p. daily vs saline
[10] = Oprm1−/− mice, bumetanide 0.5 mg/kg

In the case of `[Br-].[Na+]` [bromide, Sodium bromide], the circling behavior (Oprm1−/− mice [1]; [4]) is reported as “little effect”, the “number of burying episodes and their duration” value (Oprm1−/− mice [1]; [4]) is reported as “did not modify” and the circling behavior (Oprm1−/− mice [1]; Example 2, bromide 250, 500 mg/kg, listed as Bromide) is reported as “no effect”. For the same compound, the “number of rearing episodes” value (Oprm1−/− mice [1]; Example 2, males since 250 mg/kg, females at 500 mg/kg only) was “increased the number of rearing episodes in wild-type and not knockout animals”, the “number of grooming episodes” value (Oprm1−/− mice [1]; Oprm1−/− and wild-type, bromide 125, 250, 500 mg/kg i.p. daily) was “dose-dependently increased the number of grooming episodes, but in wild-type animals only; also recorded: increased grooming occurrence in wild-type animals only” and the “motor stereotypies (shakes and circling), overall” value (Oprm1−/− mice [1]; [5]) was “efficiently reduce; also recorded: demonstrated efficacy in reducing; also recorded: significant decrease”. The “number of circling episodes” value (Oprm1−/− mice [1]; [5]) was “normalized”, the “number of circling episodes” value (Oprm1−/− mice [1]; Oprm1−/− mice, bromide 125, 250, 500 mg/kg i.p. daily, listed as Bromide) was “decreased” and the number of shakes (Oprm1−/− mice [1]; Oprm1−/− mutant mice, bromide 125, 250, 500 mg/kg i.p. daily) was “reduced their occurrence”. The number of shakes (Oprm1−/− mice [1]; Oprm1−/− mutant mice, bromide 125, 250, 500 mg/kg i.p. daily, listed as Bromide) was “decreased”, the “number of rearing episodes” value (Oprm1−/− mice [1]; all animals (Oprm1−/− and wild-type), bromide 125, 250, 500 mg/kg i.p. daily) was “increased” and the “number of burying episodes” value (Oprm1−/− mice [1]; [6]) was “dose-dependently reduced; also recorded: dose dependently reduced”. The time spent burying (Oprm1−/− mice [1]; [6]) was “dose-dependently reduced”, the number of shakes (Oprm1−/− mice [1]; wild-type (Oprm1+/+) mice, bromide 125, 250, 500 mg/kg i.p. daily) was “dose-dependently increased” and the number of shakes (Oprm1−/− mice [1]; wild-type (Oprm1+/+) mice, bromide 125, 250, 500 mg/kg i.p. daily, listed as Bromide) was “increased”. For the same compound, the “number of nose contacts and following episodes” value (Oprm1−/− mice [2]; Example 2, FIG. 13A, male mutants, both doses) was “increased”, the “total amount of time spent in social contact” value (Oprm1−/− mice [2]; Example 2, FIG. 13A, male wild-type and knockout mice) was “increased” and the “total time in social contact, number of nose contacts and following episodes” value (Oprm1−/− mice [2]; Example 2, FIG. 13B, female mutant mice only, dose dependent) was “increased”. For the same compound, the “number of rearing episodes (activity)” value (Oprm1−/− mice [2]; Example 2, Oprm1 null mice, bromide 250 mg/kg, more in males than females) was “increased”, the “social interaction (overall)” value (Oprm1−/− mice [2]; Example 2, Oprm1−/− mice, bromide 250, 500 mg/kg) was “able to restore social interaction” and the “number of following episodes” value (Oprm1−/− mice [2]; [7]) was “increasing”. For the same compound, the “number, time spent in and duration of nose and paw contacts” value (Oprm1−/− mice [2]; [7]) was “increasing”, the “time spent in close contact” value (Oprm1−/− mice [2]; [7]) was “increasing” and the “gender influence on the increase of social interaction parameters” value (Oprm1−/− mice [2]; Example 2, Oprm1−/− mice, effects since 250 mg/kg in males, only at the highest dose in females) was “more significantly in males than in females”. For the same compound, the “duration of grooming episodes” value (Oprm1−/− mice [2]; [8]) was “reduced”, the “number of grooming episodes” value (Oprm1−/− mice [2]; [8]) was “reduced” and the “number of grooming episodes occurring immediately after a close contact” value (Oprm1−/− mice [2]; [8]) was “reduced”. For the same compound, the time spent grooming (Oprm1−/− mice [2]; [8]) was “reduced”, the “direct social interaction (overall)” value (Oprm1−/− mice [2]; [9]) was “can restore direct social interaction; also recorded: significantly improved social interaction; also recorded: increased direct social interaction” and the “number of following episodes” value (Oprm1−/− mice [2]; [9]) was “dose-dependently increasing; also recorded: increased”. For the same compound, the “number of grooming episodes” value (Oprm1−/− mice [2]; [9]) was “reduced”, the “number of grooming episodes occurring immediately after a social contact” value (Oprm1−/− mice [2]; [9]) was “reduced” and the “number, time spent in and duration of nose and paw contacts” value (Oprm1−/− mice [2]; [9]) was “dose-dependently increasing; also recorded: increased”. The “total time spent in social contact” value (Oprm1−/− mice [2]; [9]) was “dose-dependently increasing; also recorded: increased”, the “efficiency on social interaction parameters in male compared with female mice” value (Oprm1−/− mice [2]; Oprm1−/− mice, bromide 250 and 500 mg/kg i.p. daily) was “more efficient in increasing social interaction parameters” and the “increases in social contact time, nose contacts, following episodes and paw contacts, bromide compared with bumetanide” value (Oprm1−/− mice [2]; [10]) was “bigger increases”. For the same compound, the “suppressive effects on grooming episodes incl. those after a social contact, bromide compared with bumetanide” value (Oprm1−/− mice [2]; [10]) was “comparable”, the “beneficial effects on sociability, bromide compared with bumetanide” value (Oprm1−/− mice [2]; Oprm1−/− mice, social interaction and three-chamber tests, bumetanide at 0.5 mg/kg, 0.5 mg/kg) was “more significant; also recorded: superior efficacy” and the “food intake in home cage” value (Oprm1−/− mice [3]; Example 2, Oprm1 mutants) was “increased food intake in mutants”. For the same compound, the latency to feed (Oprm1−/− mice [3]; Example 2) was “drastically reduced”, the latency to feed (Oprm1−/− mice [3]; Example 2, listed as Bromide) was “decreased in wild-type, and normalized in mu opioid receptor null mice” and the “gender influence on latency to feed” value (Oprm1−/− mice [3]; Example 2, bromide 250 mg/kg) was “more effective in males than in females”. For the same compound, the “dose at which the maximal effect on latency to feed was reached” value (Oprm1−/− mice [3]; Example 2, female Oprm1 null mice) was 500 mg/kg, the “food intake in home cage” value (Oprm1−/− mice [3]; Example 2, female wild-type animals, bromide 250 mg) was “ate more than saline-treated animals” and the “dose at which the maximal effect on latency to feed was reached” value (Oprm1−/− mice [3]; Example 2, male Oprm1 null mice) was 250 mg/kg. For the same compound, the feeding latency (Oprm1−/− mice [3]; Oprm1−/− mice, bromide, all three doses (125, 250, 500 mg/kg)) was “efficiently reduced the feeding latency to wild-type level; also recorded: normalized”, the “behavioural signs of anxiety (overall)” value (Oprm1−/− mice [3]; Oprm1−/− mice, marble burying and novelty-suppressed feeding, bromide 125, 250, 500 mg/kg) was “efficiently reduced; also recorded: relieved” and the “food intake back in the home cage” value (Oprm1−/− mice [3]; wild-type and mutant mice, bromide 125, 250, 500 mg/kg i.p. daily) was “increased”.
